Tests used:
[1] = Cytotoxicity against Balb/c mouse splenocytes assessed as cell viability in presence of anti-CD3/anti-CD28 measured after 24 hrs; assay type: cell-based, Splenocyte; settings: read-out: Activity
[2] = target: T1, Nuclear receptor ROR-gamma (Mus musculus, UniProt P51450); test: Transrepression of RORgammat in Balb/c mouse splenocytes assessed as reduction in anti-CD3/anti-CD28 stimulated IL-17 level measured after 48 hrs in presence of anti-CD3/anti-CD28 by ELISA; assay type: cell-based
T1 sequence (P51450 whole entry): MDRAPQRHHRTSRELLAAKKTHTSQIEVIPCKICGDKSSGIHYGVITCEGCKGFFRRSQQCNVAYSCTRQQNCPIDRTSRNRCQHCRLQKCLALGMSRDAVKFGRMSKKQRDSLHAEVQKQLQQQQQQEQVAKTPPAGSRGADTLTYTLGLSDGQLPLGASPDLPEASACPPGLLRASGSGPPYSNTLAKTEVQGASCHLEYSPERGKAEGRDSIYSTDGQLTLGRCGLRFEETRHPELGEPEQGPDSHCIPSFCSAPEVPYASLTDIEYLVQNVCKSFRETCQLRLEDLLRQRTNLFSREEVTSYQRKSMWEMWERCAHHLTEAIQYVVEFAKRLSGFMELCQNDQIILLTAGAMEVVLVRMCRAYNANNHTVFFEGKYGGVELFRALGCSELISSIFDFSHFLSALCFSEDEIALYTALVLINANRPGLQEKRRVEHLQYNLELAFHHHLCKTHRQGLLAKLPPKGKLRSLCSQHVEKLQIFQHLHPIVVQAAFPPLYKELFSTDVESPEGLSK

[3] = test system: Splenocyte; test: Cytotoxicity against mouse splenocytes assessed as cell viability incubated for 6 days in presence of anti-CD4/anti-IFNgamma/TGFbeta/IL-6; assay type: cell-based; settings: 144 h
[4] = Metabolic stability in dog hepatocytes assessed as parent compound remaining after 60 mins; assay type: ADME, cell-based, Canis lupus familiaris, Hepatocyte; settings: read-out: Stability
[5] = Metabolic stability in simulated gastric fluid assessed as compound remaining after 15 mins; assay type: ADME; settings: read-out: Stability
[6] = Metabolic stability in simulated gastric fluid assessed as compound remaining after 30 mins; assay type: ADME; settings: read-out: Stability
[7] = Metabolic stability in simulated gastric fluid assessed as compound remaining after 45 mins; assay type: ADME; settings: read-out: Stability
[8] = Metabolic stability in simulated gastric fluid assessed as compound remaining after 60 mins; assay type: ADME; settings: read-out: Stability
[9] = Metabolic stability in simulated intestinal fluid assessed as compound remaining after 15 mins; assay type: ADME; settings: read-out: Stability
[10] = Metabolic stability in simulated intestinal fluid assessed as compound remaining after 30 mins; assay type: ADME; settings: read-out: Stability
[11] = Metabolic stability in simulated intestinal fluid assessed as compound remaining after 3 hrs; assay type: ADME; settings: read-out: Stability
[12] = Plasma protein binding in mouse; assay type: ADME; settings: read-out: PPB (converted)
[13] = Plasma protein binding in human; assay type: ADME; settings: read-out: PPB
[14] = Mutagenicity in Salmonella typhimurium by mini Ames test; assay type: toxicity; settings: salmonella enterica subsp. enterica serovar typhimurium
[15] = Cmax in mouse at 10 mg/kg, po; assay type: ADME, organism-based; design: dose 10 mg/kg, route oral; settings: in vivo
[16] = Tmax in mouse at 10 mg/kg, po; assay type: ADME, organism-based; settings: in vivo
[17] = AUC (0 to 24 hrs) in mouse at 10 mg/kg, po; assay type: ADME, organism-based; design: dose 10 mg/kg, time < 24 hr, route oral; settings: in vivo
[18] = Volume of distribution at steady state in mouse at 3 mg/kg, iv; assay type: ADME, organism-based; settings: in vivo, read-out: Vdss
[19] = Half life in mouse at 3 mg/kg, iv; assay type: ADME, organism-based; settings: in vivo
[20] = test system: Mus musculus; test: Inhibition of anti-CD3-induced IL-17A level in Balb/c mouse plasma at 10 mg/kg, po treated prior to stimulation with anti-CD3 for 3 hrs relative to control; assay type: functional
[21] = test system: Mus musculus; test: Inhibition of anti-CD3-induced IL-17A level in Balb/c mouse plasma at 30 mg/kg, po treated prior to stimulation with anti-CD3 for 3 hrs relative to control; assay type: functional
[22] = test system: Mus musculus; test: (§1) Immunosuppressive activity in MOG (35 to 55 residues)/pertussis toxin-induced experimental allergic encephalomyelitis C57BL/6J mouse model assessed as reduction in disease severity score at 30 mg/kg, po bid measured at day 21 relative to dexamethasone; assay type: functional; settings: 504 h
[23] = test system: Mus musculus; test: Immunosuppressive activity in MOG (35 to 55 residues)/pertussis toxin-induced experimental allergic encephalomyelitis C57BL/6J mouse model assessed as reduction in disease severity score at 3 mg/kg, po bid measured at day 23 relative to dexamethasone; assay type: functional; settings: 552 h
[24] = test system: Mus musculus; test: Immunosuppressive activity in MOG (35 to 55 residues)/pertussis toxin-induced experimental allergic encephalomyelitis C57BL/6J mouse model assessed as reduction in disease severity score at 10 mg/kg, po bid measured at day 23 relative to dexamethasone; assay type: functional; settings: 552 h
[25] = test system: Mus musculus; test: (§2) Immunosuppressive activity in MOG (35 to 55 residues)/pertussis toxin-induced experimental allergic encephalomyelitis C57BL/6J mouse model assessed as reduction in disease severity score at 30 mg/kg, po bid measured at day 23 relative to dexamethasone; assay type: functional; settings: 552 h
[26] = test system: Mus musculus; test: as §1, with “IL-17A gene expression in spinal cord” for “disease severity score”, “19 post MOG immunization/pertusis immunization” for “21”, “control” for “dexamethasone”; assay type: functional; settings: 456 h
[27] = test system: Mus musculus; test: as §1, with “IL-17F gene expression in spinal cord” for “disease severity score”, “19 post MOG immunization/pertusis immunization” for “21”, “control” for “dexamethasone”; assay type: functional; settings: 456 h
[28] = test system: Mus musculus; test: as §1, with “IL-22 gene expression in spinal cord” for “disease severity score”, “19 post MOG immunization/pertusis immunization” for “21”, “control” for “dexamethasone”; assay type: functional; settings: 456 h
[29] = test system: Mus musculus; test: as §1, with “CCR6 gene expression in spinal cord” for “disease severity score”, “19 post MOG immunization/pertusis immunization” for “21”, “control” for “dexamethasone”; assay type: functional; settings: 456 h
[30] = test system: Mus musculus; test: as §2, with “IL-17A gene expression in spinal cord” for “disease severity score”, “23 post MOG immunization/pertusis immunization” for “23”, “control” for “dexamethasone”; assay type: functional; settings: 552 h
[31] = test system: Mus musculus; test: as §2, with “IL-22 gene expression in spinal cord” for “disease severity score”, “23 post MOG immunization/pertusis immunization” for “23”, “control” for “dexamethasone”; assay type: functional; settings: 552 h
[32] = test system: Mus musculus; test: as §2, with “GM-CSF gene expression in spinal cord” for “disease severity score”, “23 post MOG immunization/pertusis immunization” for “23”, “control” for “dexamethasone”; assay type: functional; settings: 552 h
[33] = test system: Mus musculus; test: as §2, with “CCR6 gene expression in spinal cord” for “disease severity score”, “23 post MOG immunization/pertusis immunization” for “23”, “control” for “dexamethasone”; assay type: functional; settings: 552 h
[34] = Metabolic stability in mouse liver microsomes assessed as parent compound remaining at 1 uM preincubated for 5 mins followed by NADPH addition after 30 mins by LC-MS/MS analysis; assay type: ADME, Microsome; settings: read-out: Stability
[35] = Metabolic stability in rat liver microsomes assessed as parent compound remaining at 1 uM preincubated for 5 mins followed by NADPH addition after 30 mins by LC-MS/MS analysis; assay type: ADME, Microsome; settings: read-out: Stability
[36] = Metabolic stability in human liver microsomes assessed as parent compound remaining at 1 uM preincubated for 5 mins followed by NADPH addition after 30 mins by LC-MS/MS analysis; assay type: ADME, Microsome; settings: read-out: Stability

With O=C(O)c1ccc(-n2cc(C(=O)c3c(Cl)cccc3Cl)c3cccc(F)c32)cc1 the viability at 24 h [1] was greater than 95%, the IC50 [2] was 500 to 503 nM and the Activity [3] was “Non-Toxic”. The remaining at 1 h [4] was 51%, the remaining at […] [5] was 84% and the remaining at 0.5 h [6] was 90%. For the same compound, the remaining at 0.75 h [7] was 93%, the remaining at 1 h [8] was 93% and the remaining at […] [9] was 100%. The remaining at 0.5 h [10] was 100%, the remaining at 3 h [11] was 100% and the fraction unbound [12] was 0.02. For the same compound, the fraction unbound [13] was less than 0.03, the Activity [14] was “Non-Toxic” and the Cmax [15] was 6.2 µM. It also gave a Tmax [16] of 0.5 h, an AUC(0-t) at 24 h [17] of 10.4 µM·h and a Vd [18] of 4.8 L/kg. The half-life [19] was 2.4 h, the inhibition in vivo at 10 mg/kg [20] was 17% and the inhibition in vivo at 30 mg/kg [21] was 33%. It also gave an inhibition in vivo at 30 mg/kg [22] of 26%, an inhibition in vivo at 3 mg/kg [23] of 25% and an inhibition in vivo at 10 mg/kg [24] of 31%. It also gave an inhibition in vivo at 30 mg/kg [25] of 39%, an inhibition in vivo at 30 mg/kg [26] of 30% and an inhibition in vivo at 30 mg/kg [27] of 70%. It also gave an inhibition in vivo at 30 mg/kg [28] of 36%, an inhibition in vivo at 30 mg/kg [29] of 60% and an inhibition in vivo at 30 mg/kg [30] of 43%. It also gave an inhibition in vivo at 30 mg/kg [31] of 24%, an inhibition in vivo at 30 mg/kg [32] of 70% and an inhibition in vivo at 30 mg/kg [33] of 36%. For the same compound, the remaining at 0.5 h, 1 µM [34] was 78%, the remaining at 0.5 h, 1 µM [35] was 100% and the remaining at 0.5 h, 1 µM [36] was 88%.

Source: ChEMBL document CHEMBL4346735, “Discovery and pharmacological evaluation of indole derivatives as potent and selective RORγt inverse agonist for multiple autoimmune conditions” (Bioorg Med Chem Lett, 2019)
